Measured values: ChEMBL document CHEMBL1128302, “Synthesis, absolute configuration, and enantioselectivity of antiretroviral effect of (R)-(-)- and (S)-(+)-cytallene. Lipase-catalyzed enantioselective acylations of (+/-)-N4-acylcytallenes” (J Med Chem, 1995)

Experiment: Inhibitory activity against HIV-1 replication in phytohemagglutininin-activated peripheral blood mononuclear (PHA-PBM) cells
Format: functional, Homo sapiens

SMILES | IC50 | IC90 | IC90 (Homo sapiens)
Nc1ccn(C=C=CCO)c(=O)n1 (stereo in doubt; 1b) | 800 nM | 3400 nM | 
Nc1ccn(C=C=CCO)c(=O)n1 (stereo in doubt; 2b) | 400 nM |  | 1700 nM
Nc1ccn(C=C=CCO)c(=O)n1 (stereo in doubt; 3c) | > 10000 nM |  | 
